Results as given in patent USRE31396E, “A-21978 Antibiotics and process for their production” (priority 1982, dated 1983).
Values after ≈ are worked out from the molar mass of the structure shown. Where two headings read alike, the source gives them in different places.

Assays:
[1] = system: Streptococcus faecalis (Guze); experiment: In vitro susceptibility of the S. faecalis Guze strain; type: cell-based
Text: ^1 In vitro susceptibility of the S. faecalis Guze strain

Fusobacterium symbiosum = experiment: Standard agar-dilution test, anaerobic bacteria; type: cell-based; details: anaerobe
[2] = system: Viridans Streptococcus 9943; experiment: Standard broth-dilution test; type: cell-based
[3] = system: Group D Streptococcus 282; experiment: Standard agar-dilution test; type: cell-based
Clostridium septicum = experiment: Standard agar-dilution test, anaerobic bacteria; type: cell-based; details: anaerobe
[4] = system: Staphylococcus aureus 3055; experiment: Standard broth-dilution test; type: cell-based
[5] = system: Viridans Streptococcus 9943; experiment: Standard agar-dilution test; type: cell-based
[6] = system: Staphylococcus epidermidis; experiment: ICS agar-dilution, clinical isolates; type: cell-based; details: Staphylococcus epidermidis (12 isolates)
[7] = system: Neisseria gonorrhoeae 111076-4; experiment: Standard agar-dilution test; type: cell-based
[8] = system: Peptostreptococcus intermedius; experiment: Standard agar-dilution test, anaerobic bacteria; type: cell-based; details: anaerobe
Peptococcus prevoti = experiment: Standard agar-dilution test, anaerobic bacteria; type: cell-based; details: anaerobe
Propionibacterium acnes = experiment: Standard agar-dilution test, anaerobic bacteria; type: cell-based; details: anaerobe
Bacteroides fragilis = experiment: Standard agar-dilution test, anaerobic bacteria; type: cell-based; details: anaerobe
Micrococcus luteus = experiment: Paper-disc agar-diffusion bioassay; details: Na salts
Eubacterium aerofaciens = experiment: Standard agar-dilution test, anaerobic bacteria; type: cell-based; details: anaerobe
[9] = system: Streptococcus pyogenes C203; experiment: Standard agar-dilution test; type: cell-based
[10] = Rat, IV
[11] = system: Streptococcus pyogenes C203; experiment: Standard broth-dilution test; type: cell-based
Staphylococcus aureus [12] = experiment: Experimental bacterial infection in mice; type: in vivo; details: subcutaneous administration, two doses
Procedure: (§1) When two doses of test compound were administered to mice in illustrative infections, the activity observed as measured as an ED50 value [effective dose in mg/kg to protect fifty percent of the test animals: See Warren Wick, et al., J. Bacteriol. 81, 233-235 (1961)].

Streptococcus pneumoniae [13] = experiment: Experimental bacterial infection in mice; type: in vivo; details: subcutaneous administration, two doses
Procedure: as §1

Streptococcus pyogenes [14] = experiment: Experimental bacterial infection in mice; type: in vivo; details: two doses
Procedure: as §1

[15] = system: Peptostreptococcus anaerobius; experiment: Standard agar-dilution test, anaerobic bacteria; type: cell-based; details: anaerobe
[16] = system: Fusobacterium necrophorum; experiment: Standard agar-dilution test, anaerobic bacteria; type: cell-based; details: anaerobe
Clostridium perfringens = type: cell-based; details: anaerobe
[17] = system: Group D Streptococcus 282; experiment: Standard broth-dilution test; type: cell-based
[18] = system: Streptococcus pneumoniae Park I; experiment: Standard agar-dilution test; type: cell-based
[19] = Mouse
Staphylococcus aureus [20] = experiment: ICS agar-dilution, clinical isolates; type: cell-based; details: Staphylococcus aureus (10 isolates), MIC or MIC range of isolates
[21] = system: Peptococcus asaccharolyticus; experiment: Standard agar-dilution test, anaerobic bacteria; type: cell-based; details: anaerobe
[22] = system: Streptococcus pneumoniae Park I; experiment: Standard broth-dilution test; type: cell-based
Staphylococcus aureus [23] = experiment: Agar dilution MIC (Table XV); type: cell-based
Text: (§2) ^1 MIC = minimum inhibitory concentration (μg/ml), agar dilution

Streptococcus pneumoniae [24] = experiment: Agar dilution MIC (Table XV); type: cell-based
Text: as §2

Streptococcus pyogenes [25] = experiment: Agar dilution MIC (Table XV); type: cell-based
Text: as §2

Actinomyces israelii = experiment: Standard agar-dilution test, anaerobic bacteria; type: cell-based; details: anaerobe
[26] = system: Staphylococcus aureus 3055; experiment: Standard agar-dilution test; type: cell-based
[27] = system: Streptococcus faecalis (Guze); experiment: Streptococcus faecalis descending rat pyelonephritis test; details: rat dose 1.0 mg/kg × 7, subcutaneous

Question: For `CCC(C)CCCCCCC(=O)NC(Cc1c[nH]c2ccccc12)C(=O)NC(CC(N)=O)C(=O)NC(CC(=O)O)C(=O)NC1C(=O)NCC(=O)NC(CCCN)C(=O)NC(CC(=O)O)C(=O)NC(C)C(=O)NC(CC(=O)O)C(=O)NCC(=O)NC(CO)C(=O)NC(C(C)CC(=O)O)C(=O)NC(CC(=O)c2ccccc2N)C(=O)OC1C` (stereo not shown) [Factor C1], which MIC [1] is on record?
Answer: 1.0 µg/mL (≈ 0.612 µM)

Question: And the MIC (Fusobacterium symbiosum)?
Answer: > 128 µg/mL

Question: What about the MIC [2] of the same compound?
Answer: 32.0 µg/mL (≈ 19.6 µM)

Question: What about the MIC [3] of the same compound?
Answer: 1.0 µg/mL (≈ 0.612 µM)

Question: What about the MIC (Clostridium septicum) of the same compound?
Answer: 4 µg/mL (≈ 2.45 µM)

Question: And the MIC [4]?
Answer: 1.0 µg/mL (≈ 0.612 µM)

Question: And the MIC [5]?
Answer: 0.5 µg/mL (≈ 0.306 µM)

Question: And the “Minimum Inhibitory Concentration” value [6]?
Answer: 0.13 to 0.25 µg/mL

Question: What about the MIC [7] of the same compound?
Answer: 16.0 µg/mL (≈ 9.79 µM)

Question: What about the MIC [8] of the same compound?
Answer: 4 µg/mL (≈ 2.45 µM)

Question: What about the MIC (Peptococcus prevoti) of the same compound?
Answer: 2 µg/mL (≈ 1.22 µM)

Question: What about the MIC (Propionibacterium acnes) of the same compound?
Answer: 8 µg/mL (≈ 4.89 µM)

Question: And the MIC (Bacteroides fragilis)?
Answer: > 128 µg/mL

Question: And the “Bioassay (Micrococcus luteus)” value (Micrococcus luteus)?
Answer: 1663 units/mg

Question: And the MIC (Eubacterium aerofaciens)?
Answer: 16 µg/mL (≈ 9.79 µM)

Question: What about the MIC [9] of the same compound?
Answer: 0.13 µg/mL (≈ 0.0795 µM)

Question: What about the LD50 [10] of the same compound?
Answer: 479 ± 32 mg/kg

Question: And the MIC [11]?
Answer: 0.5 µg/mL (≈ 0.306 µM)

Question: What about the ED50 (Staphylococcus aureus [12]) of the same compound?
Answer: 0.22 mg/kg

Question: And the ED50 (Streptococcus pneumoniae [13])?
Answer: 0.3 mg/kg

Question: What about the ED50 (Streptococcus pyogenes [14]; oral administration) of the same compound?
Answer: 93 mg/kg

Question: And the ED50 (Streptococcus pyogenes [14]; subcutaneous administration)?
Answer: 0.064 mg/kg

Question: And the MIC [15]?
Answer: 2 µg/mL (≈ 1.22 µM)

Question: And the MIC [16]?
Answer: 64 µg/mL (≈ 39.2 µM)

Question: What about the MIC (Clostridium perfringens) of the same compound?
Answer: 16 µg/mL (≈ 9.79 µM)

Question: What about the MIC [17] of the same compound?
Answer: 2.0 µg/mL (≈ 1.22 µM)

Question: What about the MIC [18] of the same compound?
Answer: 0.13 µg/mL (≈ 0.0795 µM)

Question: What about the LD50 ([19]; IV) of the same compound?
Answer: > 250 mg/kg

Question: What about the LD50 ([19]; SC) of the same compound?
Answer: > 365 mg/kg

Question: What about the “Minimum Inhibitory Concentration” value (Staphylococcus aureus [20]) of the same compound?
Answer: 0.5 µg/mL

Question: What about the MIC [21] of the same compound?
Answer: 4 µg/mL (≈ 2.45 µM)

Question: And the MIC [22]?
Answer: 2.0 µg/mL (≈ 1.22 µM)

Question: What about the MIC (Staphylococcus aureus [23]) of the same compound?
Answer: 0.5 µg/mL (≈ 0.306 µM)

Question: What about the MIC (Streptococcus pneumoniae [24]) of the same compound?
Answer: 0.13 µg/mL (≈ 0.0795 µM)

Question: What about the MIC (Streptococcus pyogenes [25]) of the same compound?
Answer: 0.13 µg/mL (≈ 0.0795 µM)

Question: What about the MIC (Actinomyces israelii) of the same compound?
Answer: 4 µg/mL (≈ 2.45 µM)

Question: And the MIC [26]?
Answer: 0.5 µg/mL (≈ 0.306 µM)

Question: And the “Percent of Rats with a 4-Log Titer Decrease” value [27]?
Answer: 50

Question: What about the “Percent of Rats Cured” value ([27]; kidney counts less than 10^2 per g) of the same compound?
Answer: 50

Question: For `CN[C@H](CC(C)C)C(=O)N[C@H]1C(=O)N[C@@H](CC(N)=O)C(=O)N[C@H]2C(=O)N[C@H]3C(=O)N[C@H](C(=O)N[C@H](C(=O)O)c4cc(O)cc(O)c4-c4cc3ccc4O)[C@H](O)c3ccc(c(Cl)c3)Oc3cc2cc(c3O[C@@H]2O[C@H](CO)[C@@H](O)[C@H](O)[C@H]2O[C@H]2C[C@](C)(N)[C@H](O)[C@H](C)O2)Oc2ccc(cc2Cl)[C@H]1O` [Vancomycin, reference compound], which MIC ([1]; Enterococcus faecalis, read-out: MIC) is on record?
Answer: 1 µg/mL (≈ 0.69 µM)
